From article PMC5667507, “A novel ^18F-labelled high affinity agent for PET imaging of the translocator protein” (Chemical Science, 2015)

What was measured:
TSPO [1] = molecular target: TSPO; design: method as in PMID 20045646; conditions: printed in Fig. 2; cited from earlier work
[2] = used for HSA column calibration; ref literature (SI ref 3); cited from earlier work
TSPO [3] = molecular target: T1, TSPO (Rattus norvegicus, UniProt P16257); test: Competition binding assay, displacement of [3H]-PK11195 in rat brain homogenates; conditions: displacement of [3H]-PK11195, rat brain homogenates; mean ± SD of three independent experiments
T1 construct: Whole brains from male Sprague-Dawley rats (200–300 g) were obtained; from tissue; host or cells: whole brain of male Sprague-Dawley rats, washed membrane homogenate
Description: Competition Binding Assays
(6 pictures or pasted objects on this page, not shown here)

[4] = molecular target: T2, human serum albumin (HSA) (Homo sapiens, UniProt P02768); test: Human serum albumin (HSA) chromatography for %PPB; type: in vitro ADME; conditions: human serum albumin (HSA) coated HPLC column, read-out: %PPB (percentage of plasma protein binding) (converted)
T2 construct: purchased ChromTech HSA 5 µm (3.0 × 50 mm) column
T2 sequence (P02768 25-609): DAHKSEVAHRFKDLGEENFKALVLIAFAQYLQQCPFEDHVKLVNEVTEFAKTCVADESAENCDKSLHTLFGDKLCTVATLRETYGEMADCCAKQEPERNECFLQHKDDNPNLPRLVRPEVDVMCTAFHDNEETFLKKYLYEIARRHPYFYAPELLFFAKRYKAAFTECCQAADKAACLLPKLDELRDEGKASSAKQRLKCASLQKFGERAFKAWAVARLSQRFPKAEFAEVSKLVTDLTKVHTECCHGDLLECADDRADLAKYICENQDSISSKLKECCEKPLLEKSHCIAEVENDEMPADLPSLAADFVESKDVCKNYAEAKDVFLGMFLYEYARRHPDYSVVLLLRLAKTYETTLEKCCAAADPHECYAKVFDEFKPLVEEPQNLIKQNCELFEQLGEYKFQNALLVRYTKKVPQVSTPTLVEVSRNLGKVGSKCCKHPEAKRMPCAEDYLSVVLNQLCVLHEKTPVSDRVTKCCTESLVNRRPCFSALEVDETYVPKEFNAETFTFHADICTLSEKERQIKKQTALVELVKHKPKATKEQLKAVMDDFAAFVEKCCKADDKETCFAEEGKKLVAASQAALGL

[5] = Stability testing in phosphate buffered saline at 37 °C (HPLC); type: physicochemical; conditions: for Purity of Compound (stability testing): 1:1 PBS/acetonitrile, 37 °C
Procedure: The key physicochemical parameters of AB5186 6, permeability (P m), membrane partition coefficient (K m) and percentage of plasma protein binding (%PPB) were determined by high-performance liquid chromatography (HPLC) methods (Table 1).[23] […] As AB5186 6 contains a fluoroalkyl group, a potential alkylating agent, the stability of this compound was examined in simulated physiological conditions. […] The combination of a relatively strong C–F bond and the presence of bulky di-ortho-substituents impart a good level of stability.
3-(Fluoromethyl)-4-phenylquinoline-2-N-diethylcarboxamide (6) (2 mg, […]) was dissolved in a 1:1 mixture of […] phosphate buffered saline and acetonitrile (2 mL) and incubated at 37 ° C. 5 µL of the solution was injected onto the HPLC system (conditions described as below in section 7) at various time points (0, 1, 2, 4, 6 and 24 h). The purity of the compound at these time points was detemined by measuring the area under the peaks of the resultant UV

In the case of “4-(2-iodophenyl)quinoline-2-carboxamide [compound 5]”, the Ki (TSPO [1]) is listed as 5.01 nM.
In the case of `CCCC1O[C@@H]2C[C@H]3[C@@H]4CCC5=CC(=O)C=C[C@]5(C)[C@H]4[C@@H](O)C[C@]3(C)[C@]2(C(=O)CO)O1` (stereo partly drawn) [budesonide], the “%PPB (literature value of calibration standard)” value (“%PPB” below) [2] is listed as 88.0%.
For `CNC(=C[N+](=O)[O-])NCCSCc1csc(CN(C)C)n1` [nizatidine], the “%PPB” value [2] is given as 35.0%.
In the case of `O=C1CN=C(c2ccccn2)c2cc(Br)ccc2N1` [bromazepam], the “%PPB” value [2] is listed as 60.0%.
For “3-iodomethylquinoline-2-carboxamide [compound 4]”, the Ki (TSPO [1]) is listed as 12 nM.
With `CCN(CC)C(=O)c1nc2ccccc2c(-c2ccccc2)c1CF` [AB5186 6, 3-(Fluoromethyl)-4-phenylquinoline-2-N-diethylcarboxamide] the Ki (TSPO [3]) was 2.8 ± 0.8 nM, the fraction unbound at 0.5 mg/mL [4] was 0.103 and the “Purity of Compound (stability testing)” value ([5]; time 0 h) was 98.81%. The “Purity of Compound (stability testing)” value ([5]; time 1 h) was 98.75%, the “Purity of Compound (stability testing)” value ([5]; time 2 h) was 98.76% and the “Purity of Compound (stability testing)” value ([5]; time 4 h) was 98.80%. For the same molecule, the “Purity of Compound (stability testing)” value ([5]; time 6 h) was 98.78%, the “Purity of Compound (stability testing)” value ([5]; time 24 h) was 91.94% and the decomposition ([5]; phosphate buffered saline pH 7.4, 37 °C, after 6 hours) was 0.03%.
`CCC(C)N(C)C(=O)c1cc2ccccc2c(-c2ccccc2Cl)n1` (stereo not drawn) [PK11195 1, reference compound] gave a fraction unbound at 0.5 mg/mL [4] of 0.085.
